Patent US4985447A, “Certain benzoquinones, naphthoquinones and derivatives thereof which exhibit thromboxane A2 synthetase inhibition or receptor antagonism and the like” (Takeda Chemical Industries, Ltd., priority 1986, dated 1991)

Assays:
5-lipoxygenase = biological target: T1, 5-lipoxygenase (Rattus norvegicus, UniProt P12527); test: Inhibition of 5-lipoxygenase (production of 5-HETE in RBL-1 cells); type: cell-based, rat (RBL-1, rat basophilic leukemia cells); conditions: for inhibition at 1 µM: 10^-6 M; for inhibition at 0.1 µM: 10^-7 M
T1 construct: endogenous in cells; host or cells: RBL-1 cells (rat basophilic leukemia)
T1 sequence (P12527 1-673): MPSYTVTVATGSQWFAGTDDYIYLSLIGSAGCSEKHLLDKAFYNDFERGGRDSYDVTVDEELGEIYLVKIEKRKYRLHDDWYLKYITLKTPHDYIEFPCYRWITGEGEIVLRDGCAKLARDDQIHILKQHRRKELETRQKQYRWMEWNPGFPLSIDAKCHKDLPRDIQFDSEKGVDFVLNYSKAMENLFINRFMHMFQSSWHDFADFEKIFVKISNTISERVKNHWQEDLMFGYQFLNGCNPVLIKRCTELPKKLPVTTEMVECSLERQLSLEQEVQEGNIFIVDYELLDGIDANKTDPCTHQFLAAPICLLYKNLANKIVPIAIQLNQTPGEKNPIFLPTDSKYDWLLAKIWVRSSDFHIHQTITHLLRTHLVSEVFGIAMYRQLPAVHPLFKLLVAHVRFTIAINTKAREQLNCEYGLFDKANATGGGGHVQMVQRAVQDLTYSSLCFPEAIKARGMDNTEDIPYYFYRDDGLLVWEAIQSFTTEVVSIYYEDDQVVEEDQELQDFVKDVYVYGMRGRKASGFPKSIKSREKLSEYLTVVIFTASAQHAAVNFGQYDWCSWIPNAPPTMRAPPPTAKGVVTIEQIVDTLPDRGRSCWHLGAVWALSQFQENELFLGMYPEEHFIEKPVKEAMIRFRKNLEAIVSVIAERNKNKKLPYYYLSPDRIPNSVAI
Procedure: Inhibition of 5-lipoxygenase
10^7 RBL-1 cells (rat basophilic leukemia cells) were suspended in 0.5 ml of MCM (mast cell medium ). To the suspension was subsequently added a solution consisting of 0.5 ml of MCM, 50 μg of arachidonic acid, 10 μg of A-23187 (calcium ionophore, Eli Lilly), and a solution of a quinone compound in ethanol at the final concentration of 1 μM, 0.1 μM, 0.01 μM or 0.001 μM of the test compound was added and allowed to react at 37° C. for 20 minutes. After the reaction, 4 ml of ethanol containing 1,4-dimethoxy-2-methyl-3-(3-methoxypropyl)naphthalene as an internal standard were added, mixed well by shaking, and kept at room temperature for 10 minutes. Then the mixture was centrifuged for 10 minutes (2000 rpm), and the supernatant was separated. The supernatant was concentrated to dryness under reduced pressure. To the concentrate, 0.5 ml of 60% aqueous methanol was added. One hundred μl of this solution was subjected to high performance liquid chromatography for quantitative analysis of 5-HETE (5-hydroxyeicosatetraenoic acid). The amount of 5-HETE was analyzed by measurement of the absorbance at […] with a UV absorption monitor.
Inhibitory effect (IE) of production of 5-HETE is expressed by (1-b/a)×100, wherein a is the peak height or the area corrected with the peak due to the internal standard in the absence of the quinone compound, and b is the peak hight or peak area corrected with the peak due to the internal standard in the presence of the quinone compound.

[1] = Effect on cerebral ischemic seizure in spontaneously hypertensive rat; type: in vivo; conditions: orally at 30 mg/kg
Procedure: Procedure: A spontaneously hypertensive rat (male, 20-23 weeks old) was given orally a compound or water at the dose of 5 ml/kg, and 1 hour later anesthetized with pentobarbital. Bilateral common carotid arteries were ligated, and the interval from immediately after the ligation to the occurrence of seizure (cramp, jumping, etc.) was measured.

[2] = Effect on occurrence of ventricular arrhythmia due to ischemia-reperfusion in rat; type: in vivo, rat (Sprague-Dawley); conditions: 30 mg/kg, p.o., rats showing abnormal function/rats used, during 10 minutes of reperfusion; for Incidence of ventricular fibrillation: **p<0.01 (X^2 test); for Incidence of cardiac arrest / Incidence of ventricular tachycardia: *p<0.05 (X^2 test)
Procedure: Procedure: The experiment was carried out in Sprague-Dawley rat (male, 11-12 weeks old) according to the method of A. S. Manning (Circ. Res. 55, 545, 1984). A rat was given orally a drug or water at the dose of 5 ml/kg, and anesthetized 1 hour later with pentobarbital (50 mg/kg, intraperitoneal injection). The rat was thoractomized under artificial respiration and the coronary left anterior descending artery was ligated for 5 minutes, followed by reperfusion for 10 minutes. The incidences of ventricular tachycardia, ventricular fibrillation and cardiac arrest observed for the 10 minutes of reperfusion were determined.

[3] = biological target: T2, Thromboxane A2 (TXA2) receptor (Oryctolagus cuniculus, UniProt Q6WQI8); test: Thromboxane A2 (TXA2) receptor antagonism (rabbit aorta strip contraction by U-46619); conditions: for Inhibition of contraction of rabbit aorta strip due to U-46619: U-46619 10^-7 M, mean ± standard error, 6 cases
T2 construct: contraction by U-46619
T2 sequence (Q6WQI8 1-233): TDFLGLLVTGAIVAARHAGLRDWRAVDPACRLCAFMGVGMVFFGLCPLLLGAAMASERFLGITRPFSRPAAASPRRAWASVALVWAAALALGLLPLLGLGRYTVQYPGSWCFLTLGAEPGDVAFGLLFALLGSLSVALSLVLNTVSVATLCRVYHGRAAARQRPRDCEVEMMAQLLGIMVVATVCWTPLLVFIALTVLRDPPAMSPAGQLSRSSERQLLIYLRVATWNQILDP
Procedure: Thromboxane A2 (TXA2) receptor antagonism
Procedure: A spiral strip of the rabbit aorta (2-3 mm wide, about 3 cm long) was suspended in Krebs-Henseleit solution under the load of 2 g. The Krebs-Henseleit solution was saturated with a mixed gas of 95% O2 -5% CO2 and warmed at 37° C. Inhibition of the contraction of the vascular strip caused by a TXA2 mimic substance, U-46619* (10^-7 M), by pretreatment with Compound No.13 30 minutes before was studied.

SMILES | inhibition at 1 µM (5-lipoxygenase) [%] | inhibition at 0.1 µM (5-lipoxygenase) [%] | Interval to the occurrence of cerebral ischemic seizure (in words) [1] | protective effect against cerebral ischemia (in words) [1] | Incidence of ventricular fibrillation [2] | Incidence of ventricular fibrillation ([2]; listed as Compound No.1) | Incidence of cardiac arrest [2] | Incidence of ventricular tachycardia [2] | Incidence of cardiac arrest ([2]; listed as Compound No.1) | Incidence of ventricular tachycardia ([2]; listed as Compound No.1) | Inhibition of contraction of rabbit aorta strip due to U-46619 ([3]; 10^-5 M) [%] | Inhibition of contraction of rabbit aorta strip due to U-46619 ([3]; 10^-5 M, listed as Compound No.13) [%] | TXA2 receptor antagonism (in words) ([3]; 10^-6 M and 10^-5 M) | Inhibition of contraction of rabbit aorta strip due to U-46619 ([3]; 10^-6 M) [%] | Inhibition of contraction of rabbit aorta strip due to U-46619 ([3]; 10^-6 M, listed as Compound No.13) [%]
CC1=C(C)C(=O)C(C(C)c2cccnc2)=C(C)C1=O (centres unmarked) [Compound No. 1, 3,5,6-trimethyl-2-[1-(3-pyridyl)ethyl]-1,4-benzoquinone] | 84 | 46 | prolonged remarkably the interval to the occurrence of cerebral ischemic seizure | exerts protective effects against cerebral ischemia | 3/8 | inhibited significantly | 1/8 | 6/8 | inhibited significantly | inhibited significantly | – | – | – | – | –
CC1=C(C)C(=O)C(C(CCCCCC(=O)O)c2cccnc2)=C(C)C1=O (centres unmarked) [Compound No. 13, 7-(3-pyridyl)-7-(3,5,6-trimethyl-1,4-benzoquinon-2-yl)heptanoic acid] | 64 | 16 | – | – | – | – | – | – | – | – | 86 ± 8 | 86 | remarkable TXA2 receptor antagonism | 14 ± 4 | 14
